Source: PubChem BioAssay (NCI)
≈ marks a conversion by molar mass, not a printed value. Where “and” joins values, the source holds several entries; their conditions need not be identical. Identical values can stand only once.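 In this assay, cells in 96-well plates receive the compound at five concentrations for 48 hours. Endpoints are linearly interpolated between the surrounding concentrations. The concentration for 50% growth inhibition is given as GI50. TGI is the concentration that stops growth completely.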

Key:
Assay in all cases: DTP human tumour cell line panel, 48 h
MALME-3M melanoma = tested on: MALME-3M melanoma
LOX IMVI melanoma = tested on: LOX IMVI melanoma
TK-10 renal = tested on: TK-10 renal
ACHN renal = tested on: ACHN renal
CAKI-1 renal = tested on: CAKI-1 renal
HL-60(TB) leukemia = tested on: HL-60(TB) leukemia
M14 melanoma = tested on: M14 melanoma
OVCAR-4 ovarian = tested on: OVCAR-4 ovarian
SN12C renal = tested on: SN12C renal
HOP-62 NSCLC = tested on: HOP-62 NSCLC
MOLT-4 leukemia = tested on: MOLT-4 leukemia
LXFL 529 NSCLC = tested on: LXFL 529 NSCLC

SMILES	TGI (MALME-3M melanoma)	TGI (LOX IMVI melanoma)	TGI (TK-10 renal) [µM]	TGI (ACHN renal) [µM]	TGI (CAKI-1 renal)	TGI (HL-60(TB) leukemia)	TGI (M14 melanoma) [µM]	TGI (OVCAR-4 ovarian)	TGI (SN12C renal)	TGI (HOP-62 NSCLC)	TGI (MOLT-4 leukemia)	GI50 (MALME-3M melanoma)	GI50 (LOX IMVI melanoma)	GI50 (MOLT-4 leukemia)	GI50 (CAKI-1 renal)	GI50 (HL-60(TB) leukemia)	GI50 (OVCAR-4 ovarian) [µg/mL]	GI50 (SN12C renal)	GI50 (HOP-62 NSCLC)	TGI (LXFL 529 NSCLC) [µM]
CCOC(=O)NC(=O)c1cn(CCSCCOC(=O)NCCCCCCNC(=O)OCCSCCn2cc(C(=O)NC(=O)OCC)c(=O)[nH]c2=O)c(=O)[nH]c1=O	> 100 µM	> 100 µM	> 100	> 100	> 100 µM	> 100 µM	> 100	> 100 µM	> 100 µM	> 100 µM										
COc1cc2c(cc1OC)C(Cc1c3ccccc3cc3ccccc13)N(C)CC2 (centres undefined)		41.2 µM			> 100 µM	31.3 µM		> 100 µM	> 100 µM	48.7 µM	58.3 µM									
NC(N)=Nc1nc2ccccc2[nH]1	47.4 µg/mL	> 150 µg/mL			> 150 µg/mL	17.2 µg/mL		55.5 µg/mL	> 150 µg/mL	124 µg/mL	37.3 µg/mL	47.4 µg/mL	43.8 µg/mL	5.03 µg/mL	48.8 µg/mL	3.87 µg/mL	22.1 (≈ 126 µM)	72.9 µg/mL	43.4 µg/mL	
Cc1cc(N=Nc2ccc(N=Nc3c(O)c(S(=O)(=O)O)cc4cc(S(=O)(=O)O)ccc34)cc2C)ccc1N=Nc1ccc2cc(S(=O)(=O)O)cc(S(=O)(=O)O)c2c1	> 100 µM	> 100 µM				> 100 µM		> 100 µM	> 100 µM	> 100 µM	> 100 µM									
CC1=C2C(O)C(C(C)C(=O)NC(C)C)CCC2(C)C=CC1=O (centres undefined)		> 100 µM			> 100 µM	> 100 µM		> 100 µM	> 100 µM	> 100 µM	> 100 µM									
CCNCCCCNCC	> 3750 µM	> 3750 µM			> 3750 µM	> 1190 µM		> 3750 µM	> 3750 µM	> 3750 µM	> 3750 µM									
COC(=O)NN1C(=O)C(=P(c2ccccc2)(c2ccccc2)c2ccccc2)C(C(=O)OC)=C1C	> 100 µM	> 100 µM	> 100	> 100	> 100 µM	> 100 µM	> 100		> 100 µM		> 100 µM									> 100
COc1cc([C@@H]2c3cc4c(c(O)c3C[C@H]3COC(=O)[C@@H]32)OCO4)cc(OC)c1O		> 200 µM			< 0.02 µM	0.0066 µM		> 200 µM	0.431 µM	> 200 µM	0.0374 µM	1.16 nM	3.94 nM and 36.7 nM	3.84 nM and 27.4 nM	6.11 nM	2.41 nM		3.72 nM	4.87 nM	0.00859
Cn1c(=O)c2nc(N3CCCCC3)cnc2n(C)c1=O	> 100 µM		> 100	> 100	> 100 µM	> 100 µM	> 100	> 100 µM	> 100 µM	> 100 µM	> 100 µM									> 100
O=C(O)CNS(=O)(=O)c1ccc(NC(=O)Nc2ccccc2)cc1	> 100 µM	> 100 µM			> 100 µM	> 31.6 µM		> 100 µM	> 100 µM	> 100 µM	> 100 µM									
